One assay concerns germline ε promoter. The assay is described as follows: Functional profile of BR10A1 wt and mutants in the A5T4 reporter cell line. The following applies: for Reporter Ratio: A5T4 reporter line; for functional category as compared to the activity of the wild type peptide: based on reporter ratio, % change calculated after subtracting 1.0 from the ratios. It is filed as cell-based, human. On the procedure: Following infection, the library was enriched for cells expressing peptides that inhibit IL-4 induced ε transcription as generally outlined in the top half of FIG. 3 and sorted by FACS into single cell clones. The clones were then screened as generally illustrated in the lower half of FIG. 3. Briefly, for screening, each clone was divided into two populations and one population was treated with Dox (10 ng/ml). After 5 days, both populations were stimulated with IL-4 (final conc. 60 U/mL; PeptroTech, Inc.) and, after 3 more days, both populations were analyzed by FACS to measure BFP and GFP fluorescence. FACS data were converted to a “reporter ratio”, which is defined for this purpose as the ratio of the geometric mean of GFP fluorescence of the +IL-4/+Dox to the +IL-4/−Dox populations. Cells expressing a peptide that inhibits germline ε transcription have a reporter ratio of ≧1.1. A reporter ratio of ≧1.2 is indicative of strong inhibition.
The ability of peptide BR10A1 wt to inhibit germline ε transcription was confirmed in naive cells. Briefly, Phoenix cells were transfected with a retroviral vector encoding a BFP-BR10A1 wt peptide fusion as described in WO 99/58663 and WO 97/27213. Naïve A5T4 cells were infected with the resultant virions and grown for 3 days. The infected cells were stimulated with IL-4 (60 U/mL) and, after 3 days, the cells were assessed by FACS for BFP and GFP. […] The BFP fluorescence data corresponding to the BFP^+ and BFP^− populations are provided in Panel A. The GFP fluorescence data corresponding to the BFP^+ and BFP^− populations are presented in Panel B. The reporter ratio for this purpose is determined as the geometric mean of the GFP fluorescence of the BFP^− population divided by the geometric mean of the GFP fluorescence of the BFP^+ population. The reporter ratio for the BR10A1 in this re-infection assay was 1.27.
A collection of BR10A1 mutants was generated by replacing single or double amino acid residues in the sequence of BR10A1 wt with a different amino acid, typically an alanine or glycine, as described in copending application Ser. No.10/095,659, entitled Methods of Identifying Protein Targets, filed Mar. 8, 2002 . The functional profiles for the mutants derived from BR10A1 wt was obtained by constructing and screening for activity in the A5T4 reporter cell line in the manner described above. The activity of each mutant at the germline ε promoter is reflected in the reporter ratio as described above. The reporter ratios were the functional values that were used to develop the functional profiles. Measurement of the reporter ratios of the mutant peptides was carried out in a number of separate experiments, each time comparing the value of cells transfected with mutant peptide to that of cells transfected with control WT peptide done at the same time. The reporter ratios of the control WT peptide can vary depending upon a number of factors including the infectivity or the state of the infected cells at the time of infection.
TABLE 2 depicts the amino acid sequences (the dual alanine mutations are underlined) of the mutants tested and the measured reporter ratios when screening in the A5T4 reporter line.
Comparison of the interaction and functional profiles was performed by categorizing the mutants of BR10A1 based on the functional and interaction assays. Based on the reporter ratio, each mutant was categorized into one of four functional categories: (1) reduction of function (ROF); (2) loss of function (LOF); (3) increase of function (IOF) or (4) functionally neutral (N) as compared to the activity of the wild type peptide, here BR10A1 wt. As mentioned previously, cells expressing a peptide that inhibits germline ε transcription have reporter ratios of ≧1.1. Cells expressing a loss of function (LOF) mutant have a reporter ratio of <1.11. […] Functionally neutral mutants have reporter ratios that fall within ±50% of that of the BR10A1 wt peptide. […]

The next assay concerns the target T1, human c-Myc protein (Homo sapiens, UniProt P01106).
T1 construct: expressed in transfected cells; prey cDNA library made from the A5T4 reporter line (human BJAB B-cells)
The assay is described as follows: Yeast two hybrid (YTH) interaction assay, β-galactosidase. It is filed as binding. The protocol: Potential binding partners for peptide BR10A1 wt were identified in a β-galactosidase yeast two-hybrid (YTH) assay using peptide BR10A1 wt as bait and a cDNA library constructed from the A5T4 reporter cell line as prey. Binding was assessed by β-galactosidase quantification using BetaFluor (Novagen) as a substrate. A negative interaction control (no cDNA fused downstream of the GAL4 activation domain sequence) was also run. A general outline of the YTH assay is illustrated in FIG. 5A. Following clustering, filtering to remove non-specific bait hits (e.g., GFP and BFP), singletons and clusters recognized by 10 or more cDNA baits (based upon historical YTH assays), and prioritization, 30 prey clones were identified as hits.
Potential targets identified in the YTH assay were reconfirmed as generally outlined in FIG. 6. The cDNA clones identified as hits in the YTH assay were purified and rescreened for interaction with the BR10A1 wt peptide in a YTH assay. The hit clones were also screened in a control assay for interaction with the BFP using a vector (pGBKT7) that contained only the BFP and not the BR10A1 peptide. At this stage, 25 putative target clones remained.
The interaction of BR10A1 wt peptide and its mutants with the clones identified as potential targets for the peptide BR10A1 wt was then quantified in a β-galactosidase YTH assay. The YTH assay was performed in the manner described above. A general outline of this YTH assay is illustrated in FIG. 5B. For each clone tested, an interaction profile was developed by comparing the β-galactosidase activity of each mutant to that of the wild type peptide as described above.
The interaction of selected IOF, ROF and LOF mutants with different polypeptides encoded by the putative target clones were quantified using the YTH assay described above. Based on the YTH assay, for each putative target, the mutants were categorized into the following four interaction categories: (1) reduction of interaction (ROI); (2) loss of interaction (LOI); (3) increase of interaction (IOI); and (4) interactionally neutral (N), by assessing the binding affinity ratio of the mutant peptide and the wild type peptide (β-gal activity of mutant/wild type) to the putative target. The selection criteria for categorizing the interactions is shown on FIG. 8.

Where [1] appears, read: separate experiment with its own WT control.
Setting [2] is: second value column (separate experiment with its own WT control).

“And” between values parts separate entries of the source, which are not always exact repeats. Equal entries are not always repeated.

Here are results for 11 sequences from patent US7241581B2, “Methods of identifying compounds that modulate IL-4 receptor-mediated IgE synthesis utilizing a c-MYC protein” (Rigel Pharmaceuticals, Inc., priority 2002, dated 2007).

T1 sequence (P01106 whole entry): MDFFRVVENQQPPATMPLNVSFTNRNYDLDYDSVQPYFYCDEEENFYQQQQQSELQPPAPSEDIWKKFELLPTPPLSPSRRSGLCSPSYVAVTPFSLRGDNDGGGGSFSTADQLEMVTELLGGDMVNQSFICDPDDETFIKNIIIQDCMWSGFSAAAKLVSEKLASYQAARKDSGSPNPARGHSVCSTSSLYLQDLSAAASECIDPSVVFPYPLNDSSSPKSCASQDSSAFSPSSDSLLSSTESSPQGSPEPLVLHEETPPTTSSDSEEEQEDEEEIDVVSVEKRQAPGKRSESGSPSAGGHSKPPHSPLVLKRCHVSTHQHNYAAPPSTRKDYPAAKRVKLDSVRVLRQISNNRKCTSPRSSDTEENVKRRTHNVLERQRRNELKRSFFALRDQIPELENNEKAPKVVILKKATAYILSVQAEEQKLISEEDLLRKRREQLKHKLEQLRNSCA

Turning to “AARRESCITRSVEEGWGLFYLGP (peptide encoded by random oligo-BR10A1MQ) [dual alanine mutant of BR10A1 wt]”, the “Reporter Ratio” value with germline ε promoter (setting [1]) is listed as 1.57.

As to “MQAAESCITRSVEEGWGLFYLGP (peptide encoded by random oligo-BR10A1RR) [dual alanine mutant of BR10A1 wt]”, the “Reporter Ratio” value with germline ε promoter (first value column (separate experiment with its own WT control)) came to 1.32.

Regarding “MQRRAACITRSVEEGWGLFYLGP (peptide encoded by random oligo-BR10A1ES) [dual alanine mutant of BR10A1 wt]”, in the assay with human c-Myc protein, the “binding to human c-Myc protein in yeast two hybrid interaction assay” value (“binding to human c-Myc protein” for short) is listed as “found to bind”. Besides, the “Reporter Ratio” value with germline ε promoter (setting [1]) is 1.50.

In the case of “MQRRESAATRSVEEAAGLFYLGP (peptide encoded by random oligo-BR10A1CIGW) [mutant of BR10A1 wt with alanines at CI and GW]”, the “Reporter Ratio” value in the assay with germline ε promoter (fourth value column (separate experiment with its own WT control)) was 1.08 and 1.15. Moreover, the “functional category as compared to the activity of the wild type peptide” value in the assay on germline ε promoter is listed as “LOF/ROF”.

For the sequence “MQRRESAATRSVEEGWGLFYLGP (peptide encoded by random oligo-BR10A1CI) [dual alanine mutant of BR10A1 wt]”, the “binding to human c-Myc protein” value in the assay with human c-Myc protein is on record as “found to bind”. Moreover, in the assay with germline ε promoter (setting [2]), the “Reporter Ratio” value came to 1.16. Moreover, the “functional category as compared to the activity of the wild type peptide” value with germline ε promoter is listed as “ROF (a reduction of function (ROF) of mutant shows a >50% decrease in reporter ratio)”.

Take “MQRRESCIAASVEEGWGLFYLGP (peptide encoded by random oligo-BR10A1TR) [dual alanine mutant of BR10A1 wt]”: in the assay with human c-Myc protein, the “binding to human c-Myc protein” value was “found to bind”. Moreover, the “Reporter Ratio” value with germline ε promoter (setting [2]) is reported as 1.62. For the same sequence, in the assay on germline ε promoter, the “functional category as compared to the activity of the wild type peptide” value is “IOF (An increase of function mutant (IOF) shows a >50% increase in reporter ratio)”.

Turning to “MQRRESCITRSVAAGWGLFYLGP (peptide encoded by random oligo-BR10A1EE) [dual alanine mutant of BR10A1 wt]”, the “Reporter Ratio” value in the assay on germline ε promoter (setting [2]) was 1.39.

Turning to “MQRRESCITRSVEEAAGLFYLGP (peptide encoded by random oligo-BR10A1GW) [dual alanine mutant of BR10A1 wt]”, the “Reporter Ratio” value in the assay with germline ε promoter (setting [2]) is reported as 1.23.

“MQRRESCITRSVEEGWAAFYLGP (peptide encoded by random oligo-BR10A1GL) [dual alanine mutant of BR10A1 wt]”: the “binding to human c-Myc protein” value in the assay with human c-Myc protein is “found to bind”. Further, the “Reporter Ratio” value in the assay with germline ε promoter (setting [2]) came out at 1.44.

As for “MQRRESCITRSVEEGWGLAALGP (peptide encoded by random oligo-BR10A1FY) [dual alanine mutant of BR10A1 wt]”, in the assay on germline ε promoter (setting [1]), the “Reporter Ratio” value is reported as 1.34.

Turning to “MQRRESCITRSVEEGWGLFY (peptide encoded by random oligo-BR10A1STOP) [C-terminally truncated form of BR10A1 wt]”, the “Reporter Ratio” value in the assay on germline ε promoter (setting [1]) is listed as 1.34.
